The values below come from patent US6083977A, “Trienoic retinoid compounds and methods” (Ligand Pharmaceuticals Incorporated, priority 1995, dated 2000).

In one test the test system is RARs or RXRs. Kind of test: Co-transfection assay, RAR and RXR receptors. The class given is cell-based. The settings on record: for potency profile compared to 9-cis retinoic acid (in words): relative to 9-cis. How it is done: (§1) Utilizing the "cis-trans" or "co-transfection" assay described by Evans et al., Science, 240:889-95 (May 13, 1988), the disclosure of which is herein incorporated by reference, the retinoid compounds of the present invention were tested and found to have strong, specific activity as either selective RAR agonists, selective RXR agonists, or as pan-agonist activators of both RAR and RXR receptors. This assay is described in further detail in U.S. Pat. Nos. 4,981,784 and 5,071,773, the disclosures of which are incorporated herein by reference.
(§2) The co-transfection assay provides a method for identifying functional agonists which mimic, or antagonists which inhibit, the effect of native hormones, and quantifying their activity for responsive IR proteins. In this regard, the co-transfection assay mimics an in vivo system in the laboratory. Importantly, activity in the co-transfection assay correlates very well with known in vivo activity, such that the co-transfection assay functions as a qualitative and quantitative predictor of a tested compounds in vivo pharmacology. See, e.g., T. Berger et al. 41 J. Steroid Biochem. Molec. Biol. 773 (1992), the disclosure of which is herein incorporated by reference.
(§3) In the co-transfection assay, a cloned cDNA for an IR (e.g., human RARα, RARβ, RXRγ) under the control of a constitutive promoter (e.g., the SV 40 promoter) is introduced by transfection (a procedure to induce cells to take up foreign genes) into a background cell substantially devoid of endogenous IRs. This introduced gene directs the recipient cells to make the IR protein of interest. A second gene is also introduced (co-transfected) into the same cells in conjunction with the IR gene. This second gene, comprising the cDNA for a reporter protein, such as firefly luciferase (LUC), is controlled by an appropriate hormone responsive promoter containing a hormone response element (HRE). This reporter plasmid functions as a reporter for the transcription-modulating activity of the target IR. Thus, the reporter acts as a surrogate for the products (mRNA then protein) normally expressed by a gene under control of the target receptor and its native hormone.
(§4) The co-transfection assay can detect small molecule agonists or antagonists of target IRs. Exposing the transfected cells to an agonist ligand compound increases reporter activity in the transfected cells. This activity can be conveniently measured, e.g., by increasing luciferase production, which reflects compound-dependent, IR-mediated increases in reporter transcription. […] . Increasing concentrations of a suspected antagonist will decrease the reporter signal (e.g., luciferase production). The co-transfection assay is therefore useful to detect both agonists and antagonists of specific IRs. Furthermore, it determines not only whether a compound interacts with a particular IR, but whether this interaction mimics (agonizes) or blocks (antagonizes) the effects of the native regulatory molecules on target gene expression, as well as the specificity and strength of this interaction.
To determine RAR and/or RXR agonist activity of the compounds of the present invention, the CV-1 cells were transiently transfected by calcium phosphate coprecipitation according to the procedure of Berger et al., 41 J. Steroid Biochem. Mol. Biol., 733 (1992) with the following receptor expressing plasmids: pRShRARα: Giguere et al., 330 Nature, 624 (1987); pRShRARβ and pRShRARγ, Ishikawa et al., 4 Mol. Endocrin., 837 (1990); pRShRXRα, Mangelsdorf et al., 345 Nature, 224 (1990); and pRSmRXRβ and pRSmRXRγ, Mangelsdorf et al., 6 Genes & Devel., 329 (1992), the disclosures of which are herein incorporated by reference.

A further test deals with RAR and RXR receptors. Put plainly: Binding to the RAR and RXR receptors. The settings on record: relative to ATRA (RAR) and 9-cis (RXR).
Test [1] relates to ornithine decarboxylase (ODC). Put plainly: Ornithine decarboxylase assay: inhibition of TPA induction of ODC. The format is cell-based.
A further test concerns RARs. Kind of test: Co-transfection assay, RAR subfamily. The class given is cell-based, human. The method, then: as §1, §2, §3
as §4, with “interaction. […]” for “interaction.”

For `C/C(=C/C=C/C(C)=C/C(=O)O)c1cc(C(C)(C)C)cc(C(C)(C)C)c1` [Compound 10, (2E, 4E, 6Z)-7-(3,5-Di-t-butylphenyl)-3-methylocta-2,4,6-trienoic acid], the “potency profile compared to 9-cis retinoic acid (in words)” value in the test with RARs or RXRs is “superior potency profile”. Moreover, in the test with RAR and RXR receptors, the “binding compared to ATRA and 9-cis (in words)” value is on record as “equal or superior binding”. As for `COC(/C=C/C=C(\C)c1ccc(C(C)(C)C)cc1)=C/C(=O)O` [D, (2E,4E,6E)-3-methoxy-7-(4-t-butylphenyl)octa-2,4,6-trienoic acid], in the test on RARs or RXRs, the “activity on any of the RARs or RXRs (in words)” value (from here on “activity on any”) is on record as “no, or virtually no, activity”. Same read-out and setting: the result for `COc1ccc(/C(C)=C/C=C/C(C)=C/C(=O)O)cc1` [B, (2E, 4E,6E)-3-methyl-7-(4-methoxyphenyl)octa-2,4,6-trienoic acid] reads “no, or virtually no, activity”. For `CCOC(=O)/C=C(C)/C=C/C=C(/C)c1cc(C(C)(C)C)cc(C(C)(C)C)c1` [Compound 8, Ethyl (2E, 4E, 6Z)-7-(3,5-di-t-butylphenyl)-3-methylocta-2,4,6-trienoate], in test [1], the “retinoid activity of ester analogs (in words)” value is recorded as “exhibit retinoid activity”. For `CCOC(=O)/C=C(C)/C=C/C=C(\C)c1cc(C(C)(C)C)cc(C(C)(C)C)c1` [Compound 7, Ethyl (2E, 4E, 6E)-7-(315-di-t-butylphenyl)-3-methylocta-2,4,6-trienoate], the “retinoid activity of ester analogs (in words)” value in test [1] is “exhibit retinoid activity”. `CC(/C=C/C=C(\C)c1cc(C(F)(F)F)cc(C(F)(F)F)c1)=C\C(=O)O` [Compound 41, (2E, 4E, 6E)-7-(3,5-Di-trifluoromethylphenyl)-3-methylocta-2,4,6-trienoic acid]: the “RAR activity (in words)” value in the test with RARs is given as “extremely potent RAR active compounds”. Regarding `COc1c(C(C)(C)C)cc(/C(C)=C/C=C/C(C)=C/C(=O)O)cc1C(C)(C)C` [Compound 47, (2E, 4E, 6E) -3-Methyl-7-(3,5-di-t-butyl-4-methoxyphenyl)octa-2,4,6-trienoic acid], in the test on RARs, the “RAR activity (in words)” value is “extremely potent RAR active compounds”; the “RAR isoform selectivity (in words)” value is “selectivity on RARβ and RARγ”. For the compound `COc1cc(C)c(/C=C/C=C/C=C(\C)C(=O)O)c(C)c1C` [C, (2E,4E,6E)-2-methyl-7-(2,3,6-trimethyl-4-methoxyphenyl)hepta-2,4,6-trienoic acid], the “activity on any” value in the test with RARs or RXRs was “no, or virtually no, activity”.

As to `C/C(=C/C=C/C(C)=C/C(=O)O)c1cc(C(C)C)cc(C(C)C)c1` [Compound 43, (2E, 4E, 6Z)-7-(3,5-Di-isopropylphenyl)-3-methylocta-2,4,6-trienoic acid], the “potency profile compared to 9-cis retinoic acid (in words)” value in the test with RARs or RXRs is on record as “superior potency profile”. With `CC(/C=C/C=C1\CCOc2c1cc(C(C)(C)C)cc2C(C)(C)C)=C\C(=O)O` [Compound 39, (2E,4E,6E)-6-(6,8,-Di-t-butylchroman-4-ylidene)-3-methylhexa-2,4,6-trienoic acid], the “RAR activity (in words)” value in the test with RARs is “extremely potent RAR active compounds”. In the case of `COc1ccc(/C(C)=C/C=C/C(C)=C/C(=O)O)cc1OC` [A, (2E,4E,6E)-3-methyl-7-(3,4-dimethoxyphenyl)octa-2,4,6-trienoic acid], in the test on RARs or RXRs, the “activity on any” value is recorded as “no, or virtually no, activity”.
